Test results from ChEMBL document CHEMBL1154710, “Synthesis, anti-inflammatory and anticancer activity evaluation of some novel acridine derivatives” (2010).

Experiments:
Format in all cases: functional
Rattus norvegicus = experiment: Antiinflammatory activity in albino Charles-Foster rat assessed as inhibition of carrageenan-induced paw oedema at 50 mg/kg, po administered 30 mins before carrageenan challenge […] after 1-3 hrs relative to control; set-up: scale not given: the % may be the effect or the level left
MCF7 = experiment: Growth inhibition of human MCF7 cells at 10 uM after 48 hrs by SRB assay; settings: MCF7, 48 h, read-out: GI
HEp-2 = experiment: Growth inhibition of human Hep2 cells at 10 uM after 48 hrs by SRB assay; settings: HEp-2, 48 h, read-out: GI
COLO 205 = experiment: Growth inhibition of human COLO205 cells at 10 uM after 48 hrs by SRB assay; settings: COLO 205, 48 h, read-out: GI
OVCAR-5 = experiment: Growth inhibition of human OVCAR5 cells at 10 uM after 48 hrs by SRB assay; settings: OVCAR-5, 48 h, read-out: GI
DU-145 = experiment: Growth inhibition of human DU145 cells at 10 uM after 48 hrs by SRB assay; settings: DU-145, 48 h, read-out: GI
PC-3 = experiment: Growth inhibition of human PC3 cells at 10 uM after 48 hrs by SRB assay; settings: PC-3, 48 h, read-out: GI
[1] = Growth inhibition of human 502713 cells at 10 uM after 48 hrs by SRB assay; settings: Homo sapiens, 502713, 48 h; read-out: GI
HCT-15 = experiment: Growth inhibition of human HCT15 cells at 10 uM after 48 hrs by SRB assay; settings: HCT-15, 48 h, read-out: GI
A549 = experiment: Growth inhibition of human A549 cells at 10 uM after 48 hrs by SRB assay; settings: A549, 48 h, read-out: GI
IMR-32 = experiment: Growth inhibition of human IMR32 cells at 10 uM after 48 hrs by SRB assay; settings: IMR-32, 48 h, read-out: GI

SMILES	Activity (Rattus norvegicus) [%]	inhibition of growth at 10 µM (MCF7) [%]	inhibition of growth at 10 µM (HEp-2) [%]	inhibition of growth at 10 µM (COLO 205) [%]	inhibition of growth at 10 µM (OVCAR-5) [%]	inhibition of growth at 10 µM (DU-145) [%]	inhibition of growth at 10 µM (PC-3) [%]	inhibition of growth at 10 µM [1] [%]	inhibition of growth at 10 µM (HCT-15) [%]	inhibition of growth at 10 µM (A549) [%]	inhibition of growth at 10 µM (IMR-32) [%]
COc1ccc2nc3ccccc3c(NCCc3c[nH]c4ccccc34)c2c1	31.33	42	9	0	23	25	51				
CO[C@@]12[C@H](COC(N)=O)C3=C(C(=O)C(C)=C(N)C3=O)N1C[C@@H]1N[C@@H]12 [MITOMYCIN]			58	4				44	25	40	85
Cc1cccc2c(NCCc3cccs3)c3ccccc3nc12	33.09	73	41	79	6	41	52				
Cc1cccc2c(NC(=S)NCc3ccco3)c3ccccc3nc12	32.33	94	61	88				95		46	5
COc1ccc2nc3ccccc3c(NC(=S)NCCc3cccs3)c2c1	34.08	34	28	35				46	45	42	74
Cc1cccc2c(NCc3ccco3)c3ccccc3nc12	0	58	51	72				52	74	52	86
COc1cccc2c1C(=O)c1c(O)c3c(c(O)c1C2=O)C[C@@](O)(C(=O)CO)C[C@@H]3O[C@H]1C[C@H](N)[C@H](O)[C@H](C)O1 [DOXORUBICIN]		48	55	34				28	93	44	86
COc1cccc2c(NCCc3cccs3)c3ccccc3nc12	26.05	37	62	24				67	73	61	78
COc1ccc2nc3ccccc3c(NCc3ccco3)c2c1	22.96	44	56	88				65	80	35	95
O=c1[nH]cc(F)c(=O)[nH]1 [FLUOROURACIL]		0	29	25				40	29	0	58
Cc1cccc2c(NCC3CCCO3)c3ccccc3nc12 (racemic)	34.02	45	18	46	54	17	61				
Cc1cccc2c(NCCc3c[nH]c4ccccc34)c3ccccc3nc12	31.03	53	23	69	51	42	53				
Cc1cccc2c(NC(=S)NCCc3cccs3)c3ccccc3nc12	30.7	92	67	19				71		53	42
COc1ccc2nc3ccccc3c(NCCc3cccs3)c2c1	41.17	44	52	69				67	78	20	89
Cc1cccc2c(NC(=S)NCC3CCCO3)c3ccccc3nc12 (racemic)	25.35	99	14	71				95		96	21
COc1cccc2c(NCc3ccco3)c3ccccc3nc12	38.37	50	54	83				62	71	36	98
CC(=O)O[C@H]1C(=O)[C@@]2(C)[C@H]([C@H](OC(=O)c3ccccc3)[C@]3(O)C[C@H](OC(=O)[C@H](O)[C@@H](NC(=O)c4ccccc4)c4ccccc4)C(C)=C1C3(C)C)[C@]1(OC(C)=O)CO[C@@H]1C[C@@H]2O [PACLITAXEL]		65	75	61				58	84	51	58
COc1ccc2nc3ccccc3c(NC(=S)NCC3CCCO3)c2c1 (racemic)	29.57	8	8	20				21	41	24	27
CC(C)Cc1ccc(C(C)C(=O)O)cc1 (stereo unspecified) [IBUPROFEN]	39										
COc1cccc2c(NCC3CCCO3)c3ccccc3nc12 (racemic)	0	52	34	66				60	64	56	69
COc1cccc2c(NCCc3c[nH]c4ccccc34)c3ccccc3nc12	39.69	78	75	84				63	91	49	99
COc1ccc2nc3ccccc3c(NCC3CCCO3)c2c1 (racemic)	20.16	42	11	61	41	9	37				
COc1ccc2nc3ccccc3c(NC(=S)NCc3ccco3)c2c1	30.98	35	26	23				45	61	37	71
Cc1cccc2c(NC(=S)NCCc3c[nH]c4ccccc34)c3ccccc3nc12	35.77	95	96	98				90		84	67
